Measurements from PubChem BioAssay (NCI).
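Each compound was tested at five concentrations against cells in 96-well plates for 48 hours. The concentration for 50% growth inhibition is given as GI50. TGI marks complete inhibition of growth.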

Legend:
Experiment in all cases: NCI-60 cell line screen, 48 h
SN12C renal = tested on: SN12C renal
786-0 renal = tested on: 786-0 renal
SNB-19 CNS = tested on: SNB-19 CNS
HL-60(TB) leukemia = tested on: HL-60(TB) leukemia
UACC-62 melanoma = tested on: UACC-62 melanoma
HS 578T breast = tested on: HS 578T breast
OVCAR-3 ovarian = tested on: OVCAR-3 ovarian
OVCAR-8 ovarian = tested on: OVCAR-8 ovarian
K-562 leukemia = tested on: K-562 leukemia
MOLT-4 leukemia = tested on: MOLT-4 leukemia

SMILES | GI50 (SN12C renal) [µM] | TGI (SN12C renal) [µM] | GI50 (786-0 renal) [µM] | TGI (786-0 renal) [µM] | GI50 (SNB-19 CNS) [µM] | TGI (SNB-19 CNS) [µM] | GI50 (HL-60(TB) leukemia) [µM] | TGI (HL-60(TB) leukemia) [µM] | GI50 (UACC-62 melanoma) [µM] | TGI (UACC-62 melanoma) [µM] | GI50 (HS 578T breast) [µM] | TGI (HS 578T breast) [µM] | GI50 (OVCAR-3 ovarian) [µM] | TGI (OVCAR-3 ovarian) [µM] | GI50 (OVCAR-8 ovarian) [µM] | TGI (OVCAR-8 ovarian) [µM] | GI50 (K-562 leukemia) [µM] | TGI (K-562 leukemia) [µM] | GI50 (MOLT-4 leukemia) [µM] | TGI (MOLT-4 leukemia) [µM]
Fc1ccc(Nc2nc(Nc3ccc(-c4nc5ccccc5[nH]4)cc3)nc(N3CCCC3)n2)cc1 | 2.25 | 5.24 | 1.8 | 3.35 | 3.93 | 19.1 | 2.64 | 6.61 | 1.77 | 3.61 | 2.16 | 5.82 | 2.75 | 6.61 | 2.36 | 5.81 | 2.31 | 5.35 | 2.19 | 5.74
Cn1c2ccccc2c2c3c(c4c5ccccc5n(CCCCCC#N)c4c21)C(=O)N(O)C3=O | 0.453 | 20.9 | 1.59 | 3.81 | 0.545 | > 100 | 0.381 | 1.81 | 0.465 | 2.03 | 3.25 | 41.9 | 1.29 | 7.9 | 0.759 | 10.8 | 0.71 | > 100 |  | 
C=C1C(=O)O[C@H]2[C@H]1CC/C(COC(=O)CCC(=O)OC/C1=C/CC[C@@]3(C)O[C@H]3[C@H]3OC(=O)C(=C)[C@@H]3CC1)=C\CC[C@@]1(C)O[C@@H]21 | 2.04 | 6.63 | 1.46 | 3.12 | 8.46 | 25 | 0.233 | 0.812 | 1.86 | 6.55 | 2.74 | 16 | 0.599 | 1.91 | 2.75 | 10.4 | 0.531 | 4.34 | 0.561 | 2.8
COC(=O)c1oc2c(C(=O)/C=C/c3ccc(OC)cc3)c(OCCCN3CCCCC3)ccc2c1C | 1.75 | 4.86 | 1.49 | 3.11 | 2.1 | 8.92 | 0.872 | 2.7 | 1.54 | 3 | 2.58 |  | 1.63 | 3.72 | 1.67 | 4.23 | 2.6 |  | 1.6 | 4.97
COC(=O)c1c(-c2ccccc2)csc1NC(=O)c1c(-c2ccccc2)noc1C | 4.06 | > 100 | 1.34 | > 100 | 1.07 | > 100 | 1.32 | > 100 | 0.78 | > 100 | > 100 | > 100 | 3.79 | > 100 | 0.776 | > 100 | 0.409 | > 100 | 1.22 | > 100
NC(=O)NC(=O)CI | 6.63 | 19.2 | 4.7 | 13.5 | 34 | 97.7 | 1.94 | 4.02 | 5.38 | 18.7 | 15.8 | 47.8 | 1.92 | 3.45 | 3.23 | 11.9 | 1.03 | 3.6 | 1.74 | 4.13
CCOC1NC(=O)Oc2ccccc21 (centres undefined) |  | > 100 |  | > 100 |  | > 100 |  | > 100 |  | > 100 |  | > 100 |  | > 100 |  | > 100 |  | > 100 |  | > 100
Cc1ccc(/C=C(\C#N)n2nnc3cc(F)c(F)cc32)cc1 | 2.72 | 7.41 | 2.5 | 11.9 | 4.58 | 20.9 | 3.16 | > 100 | 3.71 | 17.5 | 4.17 | 44.9 | 1.47 | 6.08 | 2.26 | 6.93 | 0.445 | > 100 | 2.7 | 36.5
O=C(Nc1ccccc1Cl)c1ccc(NC2=C(Cl)C(=O)N(Cc3ccccc3)C2=O)cc1 | 27.8 | 73.7 | 24.8 | 57.3 | > 100 | > 100 | 22.5 | 50.6 | 19.5 | 41.1 | 32.7 | 69.3 | 18.7 | 36.6 | 18.7 | 36.9 | 21.8 | 49.3 | 19.1 | 50.8
CN(C)/[N+]([O-])=N/Oc1cc(Nc2ccc(C(=O)O)cc2)c([N+](=O)[O-])cc1[N+](=O)[O-] | 18.6 | 33.6 | 22.2 | 55.3 | 18.2 | 35.3 | 18.5 | 58.8 | 17.9 | 32.2 | 21.7 | 57.3 |  |  | 22.1 | 52.1 | 38.2 | > 100 | 53.3 | > 100
C=C1C(=O)O[C@H]2[C@H]1CC/C(Cn1cc(CCC)nn1)=C\CC[C@@]1(C)O[C@@H]21 | 12.1 | 29.4 | 11.3 | 25.5 | 18.8 | 38.1 | 3.53 | 15.3 |  |  | 23.4 | 69.6 | 3.96 | 14 | 13.5 | 29.8 | 3.96 | 29.8 | 5.54 | 27.6
C[n+]1c2ccccc2c(NC2CCNCC2)c2[nH]c3ccccc3c21 | 0.0324 | 0.314 | 2.46 | 16.3 | 0.269 | 2.2 | 1.8 | > 22.6 | 0.215 | 1.08 | 0.116 | 0.82 | 0.969 | 5.87 | 1.42 | 12.8 |  |  | 0.114 | 
